According to patent publication US20240108684A1, “DOSING REGIMENS FOR TREATMENT OF FUNGAL INFECTIONS” (priority 2016, published 2024):
Converted amounts (≈) assume the structure as drawn. Read-outs that look alike come from different tables or passages of the source. *1 amine or outer side, *2 acyl side, *3 side chain or, on linkers, in order; H or OH if unused. Where a SMILES comes first, the peptide text is derived from it. Bridges are numbered along the chain shown (N, C = ends). [ ]: non-standard residue; d: D form. The star is where a group is joined. hTyr(3S-OH,4S-OH,3'-OSO3H) = N[C@H](C(=O)O)[C@H](O)[C@@H](O)c1ccc(O)c(OS(=O)(=O)O)c1; Orn(4R-OH,5R-OH) = O=C([C@H](C[C@@H](O)[C@@H](O)N[*:3])N[*:1])[*:2]; Pro(3S-OH,4S-Me) = C[C@H]1CN[C@H](C(=O)O)[C@H]1O; X1 = CCCCCOc1ccc(-c2cc(-c3ccc(C(=O)*)cc3)no2)cc1; Gln(3R-OH) = NC(=O)C[C@@H](O)[C@H](N)C(=O)O; Hyp = O=C(O)[C@@H]1C[C@@H](O)CN1

Assays:
[1] = tested on: azole-resistant C. albicans R357 strain; test: MIC and CLSI susceptibility, azole-resistant C. albicans R357; assay type: cell-based, Candida albicans; conditions: for Susceptibility of strain R357 in words: C. albicans R357 isolated from human blood
C. auris isolates = test: Candida auris antifungal susceptibility testing (AFST), CLSI M27-A3; assay type: cell-based
[2] = tested on: Aspergillus fumigatus (ATCC 13073); test: Neutropenic mouse model of aspergillosis, survival; assay type: in vivo, mice; conditions: 2 mg/kg IP one dose; 10 days; P<0.05
C. albicans (R357) = test: Disseminated infection model with C. albicans R357, kidney fungal counts; assay type: in vivo, ICR mice
[3] = Solubility of test articles in vehicle, visual observation; conditions: WFI; 2 mg/mL
Protocol: Amphotericin B and fluconazole were in powder form. Amphotericin B was dissolved in 0.9% NaCl. Fluconazole was dissolved in water (WFI: water for injection).

| Structure (SMILES) | Susceptibility (CLSI) ([1]; C. albicans R357) | Number of resistant C. auris isolates (C. auris isolates; of 38 isolates) | Susceptibility of strain R357 in words [1] | MIC ([1]; Candida albicans) | further results |
| --- | --- | --- | --- | --- | --- |
| CC[C@H](C)C[C@H](C)CCCCCCCCC(=O)N[C@H]1C[C@@H](O)[C@@H](NCCN)NC(=O)[C@@H]2[C@@H](O)CCN2C(=O)[C@H]([C@H](O)CCN)NC(=O)[C@H]([C@H](O)[C@@H](O)c2ccc(O)cc2)NC(=O)[C@@H]2C[C@@H](O)CN2C(=O)[C@H]([C@@H](C)O)NC1=O [Caspofungin, caspofungin] | S | 4 |  |  | MIC ([1]; Candida albicans, C. albicans R357, endpoint 50% inhibition, read-out: MIC): 0.25 µg/mL (≈ 0.229 µM); Breakthrough at 48 h (C. auris isolates; C. auris strains): most strains breakthrough |
| CCCCCOc1ccc(-c2cc(-c3ccc(C(=O)N[C@H]4C[C@@H](O)[C@@H](O)NC(=O)[C@@H]5[C@@H](O)[C@@H](C)CN5C(=O)[C@H]([C@H](O)CC(N)=O)NC(=O)[C@H]([C@H](O)[C@@H](O)c5ccc(O)c(OS(=O)(=O)O)c5)NC(=O)[C@@H]5C[C@@H](O)CN5C(=O)[C@H]([C@@H](C)O)NC4=O)cc3)no2)cc1 [MICA, micafungin] (X1-[Orn(4R-OH,5R-OH)]T[Hyp][hTyr(3S-OH,4S-OH,3'-OSO3H)][Gln(3R-OH)][Pro(3S-OH,4S-Me)]; lactam 1-C) |  |  |  |  | Number of resistant C. auris isolates (C. auris isolates): 4 |
| C[C@@H]1[C@H](O)[C@@H](C)/C=C/C=C/C=C/C=C/C=C/C=C/C=C/[C@H](O[C@@H]2O[C@H](C)[C@@H](O)[C@H](N)[C@@H]2O)C[C@@H]2O[C@](O)(C[C@@H](O)C[C@@H](O)[C@H](O)CC[C@@H](O)C[C@@H](O)CC(=O)O[C@H]1C)C[C@H](O)[C@H]2C(=O)O [Amphotericin B, amphotericin B] | S |  | susceptible |  | Survival versus vehicle [2]: significantly longer survival than vehicle; MIC ([1]; C. albicans R357, endpoint 100% inhibition): 0.5 µg/mL (≈ 0.541 µM); Reduction in fungal counts (C. albicans (R357); 3 mg/kg IV, 72 hr): two log reduction; Antimicrobial effect versus vehicle (kidney fungal counts) (C. albicans (R357); 1 and 3 mg/kg IV once, 48 and 72 hr after infection): Significant effects |
| C[C@@H](c1ncncc1F)[C@](O)(Cn1cncn1)c1ccc(F)cc1F [Voriconazole, voriconazole] | R |  | resistant | > 64 µg/mL |  |
| CC[C@@H]([C@H](C)O)n1ncn(-c2ccc(N3CCN(c4ccc(OC[C@@H]5CO[C@@](Cn6cncn6)(c6ccc(F)cc6F)C5)cc4)CC3)cc2)c1=O [Posaconazole, posaconazole] |  |  | resistant | > 64 µg/mL |  |
| OC(Cn1cncn1)(Cn1cncn1)c1ccc(F)cc1F [Fluconazole, fluconazole] | R | 38 | resistant | > 64 µg/mL | Solubility [3]: S; Reduction in colony counts compared to vehicle (C. albicans (R357); 20 mg/kg PO, 48 hr after infection): 51%; Reduction in colony counts compared to vehicle (C. albicans (R357); 20 mg/kg PO, 72 hr after infection): 84%; Statistical significance of reduction versus vehicle (C. albicans (R357); 20 mg/kg PO, one-way ANOVA, Dunnett's test (P>0.05)): not significant |
